Measurements published in patent US5098613A, “Anti-inflammatory agents” (Eli Lilly and Company, priority 1990, dated 1992).
Blank lines part the entries; values can stand above or below the molecule they belong to.

Tests used:
[1] = test system: inflammation created by injecting carrageenin into the hind paws of rats; experiment: Carrageenin Assay; assay type: in vivo; settings: Rattus norvegicus, ip, 50 mg/kg i.p., prior to carrageenin injection, read-out: Percent Inhibition (Antiinflammatory Activity in the Carrageenin Assay)
Description: The compounds were evaluated for antiinflammatory activity in the test method described by C. A. Winter, Proc. Soc. Exp. Biol. Med., 111, 544 (1962). In this test, inflammation is created by injecting carrageenin into the hind paws of rats. Test compounds are administered prior to injection to determine percent inhibition of the subsequent inflammation in comparison with control animals.

[2] = test system: Arachidonic Acid Induced Ear Edema; experiment: Arachidonic Acid-Induced Ear Edema Assay; assay type: in vivo, Female BALB/C mice; settings: Mus musculus, 1 h, topical, one hour prior to arachidonic acid, read-out: Percent Inhibition of Ear Swelling; for inhibition in vivo at 1 %: 1% in ethanol gel; for inhibition in vivo at 0.05 %: 0.05% in ethanol gel
Description: Female BALB/C mice (Charles River; 18-20 rams) were divided into groups of five. Arachidonic acid was dissolved in ethanol at a concentration of 200 mg/ml. Each mouse received 2 mg/ear of arachidonic acid on the inner surface of the right ear. This dose of phlogistic was applied by an automatic pipette in 10 mcl volumes. The left ear (control) received ethanol. Drugs were applied topically in an ethanol-based gel to the entire outer surface of both ears one hour prior to arachidonic acid application. Edema was measured by the increase in ear weight. An hour after arachidonic acid solution or vehicle was applied, an ear sample of 7 mm in diameter was obtained from both ears. Ear edema was calculated by subtracting the […], dividing by the weight of the left/Control ear, and averaging the results for each group of mice according to compound and concentration.

[3] = test system: IL-1 induced T-cell Proliferation; experiment: Anti IL-1 Activity (Thymocyte Assay): suppression of IL-1 induced T-cell proliferation; assay type: cell-based, C3H/HeJ male mice; settings: mouse thymocytes, 48 hours, read-out: Percent T-cell suppression; for inhibition at 1 µg/mL: 1 mcg/ml; for inhibition at 10 µg/mL: 10 mcg/ml
Description: Thymus from 3-4 week old C3H/HeJ male mice and were passed through a #100 mesh screen to make a single cell suspension. The cells were suspended in RPMI-1640 supplemented with 2×10^-5 M 2-mercaptoethanol, 3% fetal calf serum, and 1% Penicillin/Streptomycin. The cell suspension was placed in a tissue culture flask and incubated at 37° C. in 5% carbon dioxide in air for 1-2 hours. The thymocytes were decanted, leaving adherent cells behind, and the liquid was centrifuged at 1400 rpm for 10 minutes. After decanting the supernatant, the cells were resuspended and counted with a hemocytometer. The density was adjusted to […]. Fifty μ1 of the suspension were added to each well of a 96-well microtiter plate, followed by the addition of 25 μl of PHA and 25 μl IL-1 (1:25 dilution of a 10 mcg/ml stock solution) per well.
Each compound to be tested was dissolved in 30% DMSO/70% PBS to make a stock solution of 1 mg/ml. Fifteen μl of each compound were added to 300 μl of media in the serial dilution plate. Twenty-five μl of each drug were added to the test plate in quadruplicate wells across the plate. The plate was incubated at 37° C. in 5% carbon dioxide in air for 48 hours. The wells were pulsed with tritiated thymidine (5 μCi.well) for 4 hours before harvesting on a Skatron cell harvester. The filter discs were placed in mini-vials, scintillation fluid (Tol-Pop) was added, and the vials counted. The percent of counts for each vial compared with control samples wherein no compound was added (vehicles only) was determined for each compound and are reported as Table III below as the percent T-ce1 suppression.

[4] = test system: shock after E. coli LPS and galactosamine (GALN) challenge; experiment: Mouse Endotoxin Shock Assay; assay type: in vivo, C57BL/6 male mice; settings: LPS/GALN s.c. challenge, results 48 hours after challenge, Reed Muench Method
Description: Compounds were given to 18-20 g C57BL/6 male mice using various regimens depending upon mode of administration. Control animals received corresponding vehicles only. The mice were then challenged with 0.2 ml of chromatographically purified 0111:B4 E. coli LPS and galactosamine hydrochloride (GALN) given subcutaneously (back of the neck). GALN was given at an approximate dose of 500 mg/kg whereas the LPS dose ranged between 0.3-1.2 μg/mouse (15-60 μg/k9). Control animals generally die of shock 7-15 hours after administration of LPS/GALN although a small number (0-5%) may die 24-48 hours after such administration. Calculation of the EDso for each compound was performed using the Reed Muench Method for results obtained 48 hours after challenge.

[5] = biological target: T1, leukotriene B4 specific receptor on the membrane of human neutrophils (Homo sapiens, UniProt Q15722); experiment: Inhibition of Binding of ^3 H-LTB4 to Peripheral Human Neutrophils; settings: 4° C., 10 minutes; for inhibition at 10 µM: drug concentration 10^-5 M, read-out: LTB4 Binding Inhibition; for inhibition at 1 µM: drug concentration 10^-6 M; for inhibition at 0.1 µM: drug concentration 10^-7 M
T1 construct: incubating neutrophils (1×10^7 cells) with 0.1-0.2 nM ^3 H-LTB4; endogenous in cells; host or cells: human peripheral blood neutrophils (buffy coats of two blood donors)
In short: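 Freshly isolated human donor neutrophils (1×10^7 cells) in HBSS/0.1% ovalbumin pH 7.3 were incubated with 0.1-0.2 nM ^3H-LTB4 and compound at 1×10^-5 or 1×10^-6 M for 10 min at 4 °C. Bound ligand was separated by centrifugation through phthalate oil and counted, then corrected for nonspecific binding and compared with compound-free control.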

T1 sequence (Q15722 whole entry): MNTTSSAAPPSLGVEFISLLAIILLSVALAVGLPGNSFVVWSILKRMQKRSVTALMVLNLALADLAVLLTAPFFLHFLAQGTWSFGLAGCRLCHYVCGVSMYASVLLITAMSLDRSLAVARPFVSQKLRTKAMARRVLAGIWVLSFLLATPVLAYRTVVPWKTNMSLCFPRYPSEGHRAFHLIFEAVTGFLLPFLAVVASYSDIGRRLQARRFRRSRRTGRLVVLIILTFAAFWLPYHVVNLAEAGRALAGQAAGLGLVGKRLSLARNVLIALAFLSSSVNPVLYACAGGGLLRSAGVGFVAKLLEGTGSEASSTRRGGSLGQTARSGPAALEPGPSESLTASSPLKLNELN

Structure (SMILES): CCc1cc(C(C)=O)c(O)cc1OCCCCCC(C)(C)C#N [Example 68, 4-(6-Cyano-6-methylheptyloxy)-5-ethyl-2-hydroxyacetophenone]
- inhibition in vivo at 50 mg/kg [1]: 33%
- inhibition in vivo at 1 % [2]: 46%
- inhibition at 1 µg/mL [3]: 13%
- inhibition at 10 µg/mL [3]: 99%
- ED50 [4]: > 50 mg/kg
- inhibition at 10 µM [5]: 84%
- inhibition at 1 µM [5]: 53%

Structure (SMILES): CCc1cc(C(C)=O)c(O)cc1OCCCCCC[S+](C)[O-] (stereo not shown) [Example 82, 2-Hydroxy-4-[6-(methylsulfinyl)hexyl-oxy]-5-ethylacetophenone]
- inhibition in vivo at 50 mg/kg [1]: 31%
- inhibition in vivo at 1 % [2]: 9%
- inhibition at 1 µg/mL [3]: 21%
- inhibition at 10 µg/mL [3]: 88%
- ED50 [4]: > 50 mg/kg
- inhibition at 10 µM [5]: 91%
- inhibition at 1 µM [5]: 50%

Structure (SMILES): CCc1cc(C(C)=O)c(O)cc1OCCCCc1nnn(C)n1 [Example 123, 2-Hydroxy-4-[4-(2-methyl-2H-tetrazol-5-yl)butoxy]-5-ethylacetophenone]
- inhibition in vivo at 50 mg/kg [1]: 55%
- inhibition in vivo at 1 % [2]: 58%
- inhibition at 1 µg/mL [3]: 36%
- inhibition at 10 µg/mL [3]: 90%
- inhibition at 10 µM [5]: 98%
- inhibition at 1 µM [5]: 60%

Structure (SMILES): CCc1cc(C(C)=O)c(O)cc1OCc1cccc(C(=O)OC)c1 [Example 93]
- ED50 [4]: 25 mg/kg
- inhibition at 10 µM [5]: 64%
- inhibition at 1 µM [5]: 22%

Structure (SMILES): C=CCc1cc(C(C)=O)c(O)cc1OCc1ccc(C#N)cc1 [Example 48, 4[(4-Acetyl-5-hydroxy-2-allylphenoxy)-methyl]benzonitrile]
- inhibition in vivo at 50 mg/kg [1]: 30%
- inhibition in vivo at 0.05 % [2]: 13.6%
- ED50 [4]: 18.6 mg/kg
- inhibition at 10 µM [5]: 22%
- inhibition at 1 µM [5]: 28%

- inhibition at 10 µM [5]: 94%
- inhibition at 1 µM [5]: 59%
Structure (SMILES): CCc1cc(C(C)=O)c(O)cc1OCCCCCCc1nnn[nH]1 [Example 140, 1-(5-Ethyl-2-hydroxy-4-{[6-(1H-tetrazol-5-yl)-hexyl]oxy}phenyl)ethanone]
- inhibition in vivo at 50 mg/kg [1]: 31%

Structure (SMILES): CCc1cc(C(C)=O)c(O)cc1OCCCCCC(C)(C)c1nn[nH]n1 [Example 108, 5-Ethyl-2-hydroxy-4-[6-methyl-6-(1H-tetrazol5-yl)heptyloxy]acetophenone]
- inhibition in vivo at 50 mg/kg [1]: 61%
- inhibition in vivo at 1 % [2]: 60%
- ED50 [4]: > 50 mg/kg
- inhibition at 10 µM [5]: 105%
- inhibition at 1 µM [5]: 96%
- inhibition at 0.1 µM [5]: 60%

Structure (SMILES): CCc1cc(C(C)=O)c(O)cc1OCc1cccc(C#N)c1 [Example 55]
- inhibition in vivo at 50 mg/kg [1]: 70%
- inhibition in vivo at 0.05 % [2]: 43 to 59%
- inhibition in vivo at 1 % [2]: 57%
- ED50 [4]: 3.1 mg/kg
- inhibition at 10 µM [5]: 60%
- inhibition at 1 µM [5]: 71%
- inhibition at 0.1 µM [5]: 25%

Structure (SMILES): CCc1cc(C(C)=O)c(O)cc1OCCCCc1nn[nH]n1 [Example 110, 5-Ethyl-2-hydroxy-4-[4-(lH-tetrazol-5-y)butoxy]acetophenone]
- inhibition in vivo at 50 mg/kg [1]: 64%
- inhibition in vivo at 1 % [2]: 58%
- inhibition at 10 µM [5]: 49%
- inhibition at 1 µM [5]: 19%

- inhibition at 10 µM [5]: 5%
- inhibition at 1 µM [5]: 13%
Structure (SMILES): CCCc1cc(C(C)=O)c(O)cc1OCCCc1ccccc1 [Example 53, 2-Hydroxy-4-(3-phenylpropoxy)-5-propyl-acetophenone]
- inhibition in vivo at 50 mg/kg [1]: 50 to 60%
- inhibition in vivo at 0.05 % [2]: 24%

Structure (SMILES): C=CCc1cc(C(C)=O)c(O)cc1OCc1cccc(C)c1 [Example 51, 2-Hydroxy-4-(3-methylbenzyloxy)-5-allyl-acetophenone]
- inhibition in vivo at 50 mg/kg [1]: 79%
- inhibition in vivo at 0.05 % [2]: 43%
- inhibition in vivo at 0.1 % ([2]; 0.1% in ethanol gel): 31%
- ED50 [4]: 27 mg/kg
- inhibition at 10 µM [5]: 24%
- inhibition at 1 µM [5]: 32%

- inhibition at 10 µM [5]: 90%
- inhibition at 1 µM [5]: 61%
Structure (SMILES): CCc1cc(C(C)=O)c(O)cc1OCCCCC#N [Example 19, 5-(4-Acetyl-2-ethyl-5-hydroxyphenoxy)-pentanenitrile]
- inhibition in vivo at 50 mg/kg [1]: 26%

Structure (SMILES): C=CCc1cc(C(C)=O)c(O)cc1OCc1cccc(C#N)c1 [Example 50]
- inhibition in vivo at 50 mg/kg [1]: 50 to 82%
- inhibition in vivo at 0.05 % [2]: 29 to 47%
- ED50 [4]: 9.5 mg/kg
- inhibition at 10 µM [5]: 67%
- inhibition at 1 µM [5]: 66%
- inhibition at 0.1 µM [5]: 25%

- inhibition at 10 µM [5]: 84%
- inhibition at 1 µM [5]: 28%
Structure (SMILES): C=CCc1cc(C(C)=O)c(O)cc1OCCCCCC(=O)NO [Example 100, 6-(4-Acetyl-5-hydroxy-2-allylphenoxy)-droxyhexanamide]
- inhibition in vivo at 50 mg/kg [1]: 38%
- inhibition in vivo at 1 % [2]: 18%

- inhibition at 10 µM [5]: 100%
- inhibition at 1 µM [5]: 77%
Structure (SMILES): CCc1cc(C(C)=O)c(O)cc1OCCCC(C)(C)c1nnn[nH]1 [Example 136, 1-(5-Ethyl-2-hydroxy-4-{[4-methyl-4-(1H-tetrazol-5-yl)pentyl]oxy}phenyl)ethanone]
- inhibition in vivo at 50 mg/kg [1]: 41%

Structure (SMILES): CCc1cc(C(C)=O)c(O)cc1OCc1cccc(F)c1 [Example 54, 5-Ethyl-4-(3-fluorobenzyloxy)-2-hydroxy-acetophenone]
- ED50 [4]: 21 mg/kg
- inhibition at 10 µM [5]: 42%
- inhibition at 1 µM [5]: 32%

Structure (SMILES): C=CCc1cc(C(C)=O)c(O)cc1OCc1ccccc1 [Example 47, 2-Hydroxy-4-benzyloxy-5-allylacetophenone]
- inhibition in vivo at 50 mg/kg [1]: 53 to 65%
- inhibition in vivo at 0.05 % [2]: 52%
- ED50 [4]: 24 mg/kg
- inhibition at 10 µM [5]: 32%
- inhibition at 1 µM [5]: 5%

- inhibition at 10 µM [5]: 104%
- inhibition at 1 µM [5]: 73%
- inhibition at 0.1 µM [5]: 20%
Structure (SMILES): CCc1cc(C(C)=O)c(O)cc1OCCCCCC(C)(C)C(=O)O [Example 87, 7-(4-Acetyl-2-ethyl-5-hydroxyphenoxy)-2,2-dimethylheptanoic acid]
- inhibition in vivo at 50 mg/kg [1]: 15%
- inhibition in vivo at 1 % [2]: 3%

Structure (SMILES): C=CCc1cc(C(C)=O)c(O)cc1OCc1ccccc1C#N [Example 49, 2-[(4-Acetyl-5-hydroxy-2-allylphenoxy)-methyl]benzonitrile]
- inhibition in vivo at 50 mg/kg [1]: 43%
- inhibition in vivo at 0.05 % [2]: 31%
- ED50 [4]: > 50 mg/kg
- inhibition at 10 µM [5]: 47%
- inhibition at 1 µM [5]: 15%

- inhibition at 10 µM [5]: 102%
- inhibition at 1 µM [5]: 72%
Structure (SMILES): CCc1cc(C(C)=O)c(O)cc1OCCCCCCC#N [Example 20, 7-(4-Acetyl-2-ethyl-5-hydroxyphenoxy)-heptanenitrile]
- inhibition in vivo at 50 mg/kg [1]: 19%
- inhibition at 1 µg/mL [3]: 39%
- inhibition at 10 µg/mL [3]: 99%
